Assay results from US4067997A, “Synergistic microbecidal composition and method” (priority 1976, dated 1978).
Converted amounts (≈) assume the structure as drawn. Like-named read-outs stand apart in the source and are kept apart here.

Key:
Escherichia coli = assay: MIC on mass basis (Example V procedure); assay type: cell-based; conditions: Escherichia coli
Protocol: (§1) The essential procedure of Example I was followed with a series of phenolic compounds, with the exception that the test method was conducted on a mass (μg/ml) basis rather than a molecular (mol/ml) basis of the foregoing tests, since the long established phenol-coeffecient test is on a mass rather than molecular basis. Additionally, a different but closely related group of organisms were used in this test, in order to give a complete representative span on gram-negative, gram-positive and fungus organisms. Additionally, the phenolic derivatives chosen for test purposes include a number of derivatives which are presently accepted by the FDA as food-grade phenolic microbicides.
(§2) The same procedure of Example V was repeated but with combinations of mono-laurin (GML).
(§3) The procedure of Example V was repeated with combinations of glycerol mono-laurin (GML) and ethylenediamine tetraacetic acid (EDTA) as the calcium salt and in combination with BHA.

Candida albicans = assay: MIC on mass basis (Example V procedure); assay type: cell-based
Protocol: as §1, §2, §3

Staphylococcus aureus = assay: MIC on mass basis (Example V procedure); assay type: cell-based
Protocol: as §1, §2, §3

Saccharomyces cerevisiae = assay: MIC on mass basis (Example V procedure); assay type: cell-based; conditions: Saccharomyces cerevisiae
Protocol: as §1, §2, §3

Pseudomonas aeruginosa = assay: MIC on mass basis (Example V procedure); assay type: cell-based
Protocol: as §1, §2, §3

Nocardia asteroides [1] = assay: MIC on mass basis (Example V procedure); assay type: cell-based
Protocol: as §1, §2, §3

[2] = test system: Streptococcus faecalis (Group D); assay: MIC on mass basis (Example V procedure); assay type: cell-based; conditions: Enterococcus faecalis
Protocol: as §1

Streptococcus pyogenes = assay: MIC on mass basis (Example V procedure); assay type: cell-based; conditions: Streptococcus pyogenes
Protocol: as §1

Corynebacterium sp. = assay: MIC on mass basis (Example V procedure); assay type: cell-based; conditions: Corynebacterium
Protocol: as §1

[3] = test system: nine gram-positive organisms and the yeast/fungus Candida; assay: MIC, broth dilution, over all organisms (Examples I/II); assay type: cell-based; conditions: for Inhibition in words: saturated acids, Table 1; for Activity in words: at the concentration tested
Protocol: (§4) In order to establish comparative bactericidal and fungicidal results with homologous fatty acids, a series of experiments was performed with thirty straight-chain fatty acids and derivatives thereof. Eight different gram-negative and twelve different gram-positive organisms, representing a very broad spectrum of organisms, were used in these experiments including the fungus Candida (a yeast). Additionally, fatty acids were chosen to show the effects of saturation versus unsaturation, in the fatty acid claim. Standard solutions of the fatty acids and their derivatives were prepared by first dissolving the weighed compounds in 1 to 2 ml of 95% ethanol and immediately pouring this solution into 200 ml of Tripticase Soy Broth. These lipid compounds which are insoluble in water and broth precipitated into very small crystals or droplets. The tubes containing the suspension were warmed to approximately 70° C and were then placed in an ultrasonic tank for further solubilization of the lipid derivatives.
(§5) Standard solutions (or suspensions) at 1,000 μg/ml were twofold serially diluted with additional broth to a concentration of 125 μg/ml. A 4-ml amount of each dilution was then quickly, and with constant agitation, dispensed into appropriately labeled screw-capped glass tubes (16 by 125 mm). The tubes were sterilized with steam at 15 psi for 15 minutes. After sterilization, all tubes were cooled and incubated overnight at 35° C to insure sterility.
(§6) All compounds were compared on a molar (micromoles/milliliter) rather than on a mass basis. In the following lists of organisms used, those followed by a parenthetical number are registered with the American Type Culture Collection (ATCC); the remainder were isolates from Providence Hospital or Northland Laboratory.
Staphylococcus aureus, S. epidermidis, beta-hemolytic streptococci (Group A and non-group A), group D streptococcus, Bacillus subtilis (6051), Sarcina lutea (9431), Micrococcus sp., Candida albicans, Nocardia asteroids (3308), Corynebacterium sp. (10700), and pneumococcus (63001).
(§7) One drop (0.04 ± 0.01 ml) of an 18-hr broth culture containing 10^7 and 10^9 organisms/ml was added to each dilution of the test compound, as well as to a tube of plain broth which served as the positive control. After inoculation, the contents of each tube were well mixed, and the tubes were incubated at 35° C in a 5% carbon dioxide + […] atmosphere.
(§8) The MIC is defined as the lowest concentration of compound at which no […] evidence of growth was observed when turbidity of the inoculated broth dilutions was compared with control tubes. […] Only a one-tube difference between the bactericidal and bacteriostatic concentrations was normally observed.
Table 5 presents a comparison of the C10 and C12 free acids and their glyceryl derivatives, and Table 6 gives the corresponding ranges of activity.
(§9) Standard solutions (1000 μg/ml) of three fatty acids and polyglycerol esters thereof were prepared as described in Example I. Also sucrose esters were prepared by transferring the weighed compounds (0.2 gm. dissolved in 1 ml absolute methanol) into 200 ml of sterile Trypticase Soy Broth (TSB). These standard solutions (1000 μg/ml) were twofold serially diluted with additional sterile broth to a concentration of 125 μg/ml. A 3.8 aliquot of each dilution was asceptically delivered into sterile screw-capped culture tubes. All tubes were incubated overnight at 36° C to insure sterility. The microorganisms used in this example were the same as those used in Example I.
The inoculum, 0.05 ml of an 13-24 hour TSB culture (approximately 10^9 organisms/ml) was asceptically delivered into all dilutions of the compounds, mixed well, and incubated at 36° C. […]

Streptococcus Group A = assay: MIC, broth dilution (Examples I/II); assay type: cell-based, beta-hemolytic streptococci Group A
Protocol: as §4, §5, §6, §7, §8, §9
(§10) The inoculum, 0.05 ml of an 13-24 hour TSB culture (approximately 10^9 organisms/ml) was asceptically delivered into all dilutions of the compounds, mixed well, and incubated at 36° C. A tube of inoculated broth without the compound served as a positive control and an uninoculated set of dilutions incubated along with the test dilutions, served as a negative control.
(§11) In those cases in which the test compound itself caused turbidity, an aliquot (0.015 ml) of the mixed broth was inoculated onto an agar plate and incubated at 36° C for examination, as described in Example I. The control procedure of Example I was also repeated. The lauric, capric, and oleic acids were used as internal controls and for comparison to Example I. The minimal inhibitory concentrations (μmole/ml) for the compounds studied are given in Tables 7 and 8.

Nocardia asteroides [4] = assay: MIC, broth dilution (Examples I/II); assay type: cell-based, Nocardia asteroids (3308); conditions: Nocardia asteroides, read-out: Inhibitory concentration
Protocol: as §4, §5, §6, §7, §8, §9, §10, §11

[5] = Table 4, range over the organisms of Table 3, read-out: MIC range
[6] = Table 2, range over the organisms of Table 1, read-out: MIC range

**Q.** Which results are given for `O=C(O)CN(CCN(CC(=O)O)CC(=O)O)CC(=O)O` [EDTA, ethylenediamine tetraacetic acid]?
**A.** MIC (Escherichia coli; Table 16, Escherichia coli, no unit in table (Example 5 procedure, mass basis)): > 1000 µg/mL; MIC (Escherichia coli; read-out: MIC of EDTA alone, Table 17, 0 amount of GML): > 10000 µg/mL; MIC (Candida albicans; Candida albicans, read-out: MIC of EDTA alone): 5000 µg/mL; MIC (Candida albicans; Table 16, Candida albicans, no unit in table): > 1,000; MIC (Staphylococcus aureus; Staphylococcus aureus, read-out: MIC of EDTA alone): 5000 µg/mL; MIC (Staphylococcus aureus; Table 16, Staphylococcus aureus, no unit in table): > 1,000; MIC (Saccharomyces cerevisiae; Table 16, Saccharomyces cerevisiae, no unit in table, read-out: MIC): 1000 µg/mL; MIC (Saccharomyces cerevisiae; Table 17, 0 amount of GML, read-out: MIC of EDTA alone): 1000 µg/mL; MIC (Pseudomonas aeruginosa; Pseudomonas aeruginosa, read-out: MIC of EDTA alone): 5000 µg/mL; MIC (Pseudomonas aeruginosa; Table 16, Pseudomonas aeruginosa, no unit in table): > 1,000; MIC (Nocardia asteroides [1]; Nocardia asteroides, read-out: MIC of EDTA alone): 500 µg/mL; MIC (Nocardia asteroides [1]; Table 16, Nocardia asteroides, no unit in table): 1,000; MIC [2]: > 1000 µg/mL; MIC ([2]; read-out: MIC of EDTA alone): 5000 µg/mL; MIC (Streptococcus pyogenes): 1000 µg/mL (≈ 3.42 mM); MIC (Streptococcus pyogenes; read-out: MIC of EDTA alone): 1000 µg/mL; MIC (Corynebacterium sp.): 1000 µg/mL (≈ 3.42 mM); MIC (Corynebacterium sp.; read-out: MIC of EDTA alone): 1000 µg/mL

**Q.** How did the “Effect of albumin on MIC” value ([3]; Albumin (0.1%) added) turn out when `CCCCCCCCCCCC(=O)O` [Lauric acid, lauric acid] was run?
**A.** Its value is “had no effect on the determination of the MIC”.

**Q.** And the MIC range ([3]; Table 4, range over the organisms of Table 3)?
**A.** The MIC range was 0.062 to 2.49 µmol/mL.

**Q.** And the MIC range ([3]; Table 6, range over the organisms of Table 5, NI = no inhibition)?
**A.** The MIC range was 0.062 - 2.49 μ/Mol/ml.

**Q.** And the MIC ([3]; read-out: MIC range)?
**A.** Its MIC is 62 to 2490 µM (≈ 12.4 to 499 µg/mL).

**Q.** And the Inhibition in words [3]?
**A.** The Inhibition in words was “clearly the more active saturated acid”.

**Q.** And the MIC (Streptococcus Group A; group A Streptococci, Bio Gel and Florisil used)?
**A.** Its MIC is greater than 990 µM.

**Q.** And the MIC (Streptococcus Group A; group A Streptococci, filtered (laurate crystals removed))?
**A.** Its MIC is 1000 µM (≈ 200 µg/mL).

**Q.** What about the MIC (Streptococcus Group A; group A Streptococci, non-filtered broth) of the same molecule?
**A.** The MIC was 125 µM (≈ 25 µg/mL).

**Q.** Which MIC [3, 5] does the source give for `CCCCCCCCCCCC(=O)N(C)C` [Lauryl N,N-dimethylamide] here?
**A.** The MIC was 54 to 109 µM (≈ 12.3 to 24.8 µg/mL).

**Q.** Which MIC [3, 5] does the source give for `CCCCCCCCCCCCO` [Lauryl alcohol] here?
**A.** Its MIC is 67 to 5400 µM (≈ 12.5 to 1010 µg/mL).

**Q.** For `CCCCCCCCCCCCCC(=O)O` [Myristic], which MIC ([3]; read-out: MIC range) is on record?
**A.** Its MIC is 218 to 4370 µM (≈ 49.8 to 998 µg/mL).

**Q.** For `CCCC/C=C\CCCCCCCC(=O)O` [Myristoleic], which MIC [3, 6] is on record?
**A.** The MIC was 55 to 552 µM (≈ 12.4 to 125 µg/mL).

**Q.** `CCCCCCCC/C=C\CCCCCCCC(=O)O` [Oleic acid] was tested. Which Activity in words [3] did it give?
**A.** The Activity in words was “very limited activity”.

**Q.** How did the MIC [3, 6] turn out when `CCCCCC/C=C\CCCCCCCC(=O)O` [Palmitoleic] was run?
**A.** The MIC was 24 to 983 µM (≈ 6.11 to 250 µg/mL).

**Q.** How did the Inhibition in words [3] turn out when `CCCCCCCCCCCCCCCCCC(=O)O` [Stearic, stearic acid] was run?
**A.** The Inhibition in words was “not inhibitory at all”.

**Q.** With `CCCCCCCCCCC(O)C(=O)O` (stereo not drawn) [α-hydroxylaurate] as the molecule, how does the MIC (Nocardia asteroides [4]) read?
**A.** The MIC was 4630 µM (≈ 1000 µg/mL).

**Q.** What about the MIC (Streptococcus Group A; read-out: Inhibitory concentration, Group A Strep) of the same molecule?
**A.** The MIC was 230 µM (≈ 49.8 µg/mL).

**Q.** With Triglycerol oleate as the molecule, how does the MIC ([3]; Table 7, one entry across all (oleic acid: all other than Grp. A) organisms, NO INHIBITION, max. tested listed) read?
**A.** The MIC was greater than 1980 µM.

**Q.** And the Activity in words [3]?
**A.** The Activity in words was “no activity at the concentration tested”.
